# From patent US8212036B2, “Maleate salts of 6-(5-chloro-2-pyridyl)-5-[(4-methyl-1-piperazinyl)carbonyloxy]-7-oxo-6,7-dihydro-5H-pyrrolo[3,4-b]pyrazine” (Sunovion Pharmaceuticals Inc., priority 2007, dated 2012)
# Columns and labels:
# Assay type in all cases: physicochemical
# [1] = Aqueous solubility (24 hour equilibrated suspension in water, HPLC); conditions: for pH measured at saturation: saturated suspension in water
# Description: The aliquot was diluted and analyzed by HPLC (Waters). The data was compared to a standard curve generated from a set of solutions of known concentrations. The standard curve and the samples were analyzed using a HPLC using the following conditions: […]
# [2] = Intrinsic dissolution, USP 28 method <1087>; conditions: isotonic 50 mM acetate (pH 4.5) buffer at 37° C., 50 rpm
# Description: The intrinsic dissolution (Table 3) was determined using USP 28 method <1087> (United States Pharmacopeia, The National Formulary, USP 28, 28th edition, Rockville, […]., 2005). Preparation of each test sample was performed as per USP 28 method <1087> by weighing and transferring the material to the die cavity and compressing for 1 minute at the minimum compression pressure necessary to form a nondisintegrating compacted pellet. The dissolution media used was isotonic 50 mM acetate buffer (pH 4.5) at 37° C. and speed was set at 50 rpm. Each run was halted at 5 min, irrespective of the percent dissolved. Each salt was run in duplicate.
# [3] = Tablet dissolution over time at various pH; conditions: for Dependence of dissolution on pH: oral dosage form, media pH 1 to 6.8 and deionized water
# Description: Dissolution over time of eszopiclone free base at various pHs (FIG. 1) was compared to that of eszopiclone maleate salt (FIG. 2) in dissolution media at various pH values using Hanson Research SR8-Plus Dissolution Apparatus and C-Technologies Fiber Optic UV Probes at 305 nm (excipients subtracted at 410 nm). The dissolution media used were (a) pH 1 (0.1N HCl) 50 ml of conc HCl mixed in 6 L of water; (b) pH 4.5 acetate buffer (20 mM) 5.88 g of sodium acetate trihydrate dissolved in 6 L of water, pH adjusted to 4.5 with acetic acid; (c) pH 5.5 phosphate buffer (20 mM) 16.3 g of potassium dihydrogen phosphate in 6 L of water. pH adjusted to 5.5 with NaOH; (d) pH 6.8 phosphate buffer (20 mM) 16.3 g of potassium dihydrogen phosphate in 6 L of water. pH adjusted 6.8 with NaOH. A standard dissolution protocol was used. The standard solution (0.006 mg/mL of eszopiclone free base) was prepared by weighing a known amount (˜20 mg) of the free base into a 100 mL volumetric flask. 10 mL of acetonitrile was added into the flask and sonicated until the solids dissolved completely. The solution was cooled to room temperature and made up to the 100 mL mark using media and mixed well. Dilute 3 mL to 100 mL using media. The tables were prepared by transferring 500 mL dissolution media into the 6 vessels. Blank readings were taken for all the probes using media. Standards were read for individual vessels. Probes were washed with media and then inserted back into each vessel. One tablet was transferred into each vessel. The dissolution program was started immediately and readings were taken at 305 nm for 60 min (every 1 min for 20 min and then every 10 min).
# FIG. 1 depicts dissolution profiles of the eszopiclone free base at pH 1 (0.1N HCl), pH 4.5 in buffer, pH 5.5 in buffer, pH 6.8 in buffer and in deionized water. […] FIG. 2 depicts dissolution profiles of the eszopiclone maleate salt at pH 1 (0.1N HCl), pH 4.5 in buffer, pH 5.5 in buffer, pH 6.8 in buffer and in deionized water. It can be seen that the dissolution is greater than 50% within five minutes and greater than 80% at one hour at all pH.
# [4] = all pH (pH 1, 4.5, 5.5, 6.8, deionized water)
Compound,pH measured at saturation [1],"solubility thermodynamic at 24 h ([1]; water, 24 hour at ambient)",Intrinsic dissolution Average [2],Intrinsic dissolution Run 1 [2],Intrinsic dissolution Run 2 [2],"Dissolution at one hour [3, 4]","Dissolution within five minutes [3, 4]",Dependence of dissolution on pH [3],"Solubility ([1]; water, 24 hour at ambient)",Part of tablet dissolved at one hour ([3]; deionized water),Dissolution of tablet ([3]; pH 1 (0.1N HCl)),Part of tablet dissolved at one hour ([3]; pH 6.8 buffer)
"CN1CCN(C(=O)O[C@H]2c3nccnc3C(=O)N2c2ccc(Cl)cn2)CC1.O=C(O)/C=C\C(=O)O [Maleate, (S)-Zopiclone Maleate]",4.4,9000 µg/mL,1.3 mgA/cm^2/min,1.4 mgA/cm^2/min,1.2 mgA/cm^2/min,greater than 80%,greater than 50%,"dissolve quickly and at substantially the same rate, regardless of the pH",,,,
"CN1CCN(C(=O)O[C@H]2c3nccnc3C(=O)N2c2ccc(Cl)cn2)CC1 [Free base, [(9S)-8-(5-chloropyridin-2-yl)-7-oxo-2,5,8-triazabicyclo[4.3.0]nona-1,3,5-trien-9-yl]4-methyl piperazine-1-carboxylate]",7.6,,0.5 mgA/cm^2/min,0.6 mgA/cm^2/min,0.5 mgA/cm^2/min,,,decreases markedly as the pH rises,0.2^1 mgA/mL,less than one half,rapid and complete,less than one half
